Source: ChEMBL document CHEMBL3862033 (J Med Chem, 2016)

What follows are compounds tested against T1, 5-hydroxytryptamine receptor 1A (Homo sapiens) (UniProt P08908) (assay: Displacement of [3H]WAY100635 from human 5-HT1AR expressed in CHO cell membranes at 10 uM incubated for 90 mins under dark condition by microbeta scintillation counting method relative to control). Details: not given.
T1 sequence (whole entry): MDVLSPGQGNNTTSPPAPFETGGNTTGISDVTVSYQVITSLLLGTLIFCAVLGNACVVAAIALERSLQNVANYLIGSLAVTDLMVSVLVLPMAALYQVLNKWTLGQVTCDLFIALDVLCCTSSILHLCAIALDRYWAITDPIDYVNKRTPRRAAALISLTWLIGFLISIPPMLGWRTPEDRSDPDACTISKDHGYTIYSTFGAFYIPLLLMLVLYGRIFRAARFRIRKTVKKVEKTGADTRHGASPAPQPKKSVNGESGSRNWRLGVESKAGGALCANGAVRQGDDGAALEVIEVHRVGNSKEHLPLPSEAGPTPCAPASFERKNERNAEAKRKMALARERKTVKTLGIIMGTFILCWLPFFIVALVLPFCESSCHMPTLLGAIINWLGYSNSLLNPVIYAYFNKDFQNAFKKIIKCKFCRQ

Row | Structure (SMILES) | inhibition [%]
1 | OC[C@@]12C[C@@H]1[C@@H](n1cnc3c(N[C@H](C4CCC4)C4CC4)nc(Cl)nc31)[C@H](O)[C@@H]2O | < 50
2 | CCC(CC)Nc1nc(Cl)nc2c1ncn2[C@H]1[C@H](O)[C@H](O)[C@]2(CO)C[C@H]12 | < 50

The compounds below were run against 5-hydroxytryptamine receptor 1B (Homo sapiens) (UniProt P28222) (assay: Displacement of [3H]5-CT from human 5-HT1BR expressed in HEK cell membranes at 10 uM incubated for 90 mins under dark condition by microbeta scintillation counting method relative to control). Details: HEK293.
Sequence of 5-hydroxytryptamine receptor 1B (Homo sapiens) (P28222 whole entry): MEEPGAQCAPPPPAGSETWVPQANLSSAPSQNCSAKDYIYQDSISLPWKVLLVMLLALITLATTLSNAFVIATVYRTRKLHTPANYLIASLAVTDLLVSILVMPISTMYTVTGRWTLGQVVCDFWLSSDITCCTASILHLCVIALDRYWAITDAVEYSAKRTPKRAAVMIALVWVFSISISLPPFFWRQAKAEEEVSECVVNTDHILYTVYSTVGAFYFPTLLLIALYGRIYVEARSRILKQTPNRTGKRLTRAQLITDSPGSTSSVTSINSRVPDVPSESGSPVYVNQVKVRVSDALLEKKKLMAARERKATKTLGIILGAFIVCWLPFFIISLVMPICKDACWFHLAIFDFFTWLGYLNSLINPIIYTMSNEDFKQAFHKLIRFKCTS

Row | Structure (SMILES) | inhibition [%]
3 | OC[C@@]12C[C@@H]1[C@@H](n1cnc3c(N[C@H](C4CCC4)C4CC4)nc(Cl)nc31)[C@H](O)[C@@H]2O | < 50
4 | CCC(CC)Nc1nc(Cl)nc2c1ncn2[C@H]1[C@H](O)[C@H](O)[C@]2(CO)C[C@H]12 | < 50

These compounds were tested against 5-hydroxytryptamine receptor 1D (Homo sapiens) (UniProt P28221) (assay: Displacement of [3H]5-CT from human 5-HT1D receptor expressed in HEK-T cell membranes at 10 uM incubated for 90 mins under dark condition by microbeta scintillation counting method relative to control). Details: not given.
Sequence of 5-hydroxytryptamine receptor 1D (Homo sapiens) (P28221 whole entry): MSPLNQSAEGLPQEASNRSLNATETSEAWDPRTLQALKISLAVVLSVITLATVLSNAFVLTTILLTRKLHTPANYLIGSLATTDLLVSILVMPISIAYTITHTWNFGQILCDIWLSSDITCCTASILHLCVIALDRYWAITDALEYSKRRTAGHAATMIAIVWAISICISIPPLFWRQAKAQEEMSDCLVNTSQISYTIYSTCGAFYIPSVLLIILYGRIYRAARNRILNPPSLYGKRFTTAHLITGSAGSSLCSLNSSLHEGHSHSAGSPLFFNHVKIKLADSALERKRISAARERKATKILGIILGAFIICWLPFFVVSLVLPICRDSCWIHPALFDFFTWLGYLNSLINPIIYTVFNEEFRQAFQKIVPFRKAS

Row | Structure (SMILES) | inhibition [%]
5 | OC[C@@]12C[C@@H]1[C@@H](n1cnc3c(N[C@H](C4CCC4)C4CC4)nc(Cl)nc31)[C@H](O)[C@@H]2O | < 50
6 | CCC(CC)Nc1nc(Cl)nc2c1ncn2[C@H]1[C@H](O)[C@H](O)[C@]2(CO)C[C@H]12 | < 50

The compounds below were run against 5-hydroxytryptamine receptor 1E (Homo sapiens) (UniProt P28566) (assay: Displacement of [3H]5-HT from human 5-HT1E receptor expressed in HEK cell membranes at 10 uM incubated for 90 mins under dark condition by microbeta scintillation counting method relative to control). Details: HEK293.
Sequence of 5-hydroxytryptamine receptor 1E (Homo sapiens) (P28566 whole entry): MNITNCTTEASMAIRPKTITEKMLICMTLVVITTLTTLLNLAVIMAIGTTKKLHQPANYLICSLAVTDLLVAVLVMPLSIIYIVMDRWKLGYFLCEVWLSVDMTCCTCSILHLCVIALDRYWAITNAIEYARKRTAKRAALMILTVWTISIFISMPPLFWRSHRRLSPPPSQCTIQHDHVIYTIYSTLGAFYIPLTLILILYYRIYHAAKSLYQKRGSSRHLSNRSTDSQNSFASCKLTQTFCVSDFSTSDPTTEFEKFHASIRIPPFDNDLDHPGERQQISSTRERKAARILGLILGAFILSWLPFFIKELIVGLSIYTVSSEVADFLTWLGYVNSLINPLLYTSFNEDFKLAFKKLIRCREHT

Row | Structure (SMILES) | inhibition [%]
7 | OC[C@@]12C[C@@H]1[C@@H](n1cnc3c(N[C@H](C4CCC4)C4CC4)nc(Cl)nc31)[C@H](O)[C@@H]2O | < 50
8 | CCC(CC)Nc1nc(Cl)nc2c1ncn2[C@H]1[C@H](O)[C@H](O)[C@]2(CO)C[C@H]12 | < 50

What follows are compounds tested against 5-hydroxytryptamine receptor 4 (Homo sapiens) (UniProt Q13639) (assay: Displacement of [3H]GR113808 from human 5-HT4 receptor at 10 uM incubated for 90 mins under dark condition by microbeta scintillation counting method relative to control). Details: not given.
Sequence of 5-hydroxytryptamine receptor 4 (Homo sapiens) (Q13639 whole entry): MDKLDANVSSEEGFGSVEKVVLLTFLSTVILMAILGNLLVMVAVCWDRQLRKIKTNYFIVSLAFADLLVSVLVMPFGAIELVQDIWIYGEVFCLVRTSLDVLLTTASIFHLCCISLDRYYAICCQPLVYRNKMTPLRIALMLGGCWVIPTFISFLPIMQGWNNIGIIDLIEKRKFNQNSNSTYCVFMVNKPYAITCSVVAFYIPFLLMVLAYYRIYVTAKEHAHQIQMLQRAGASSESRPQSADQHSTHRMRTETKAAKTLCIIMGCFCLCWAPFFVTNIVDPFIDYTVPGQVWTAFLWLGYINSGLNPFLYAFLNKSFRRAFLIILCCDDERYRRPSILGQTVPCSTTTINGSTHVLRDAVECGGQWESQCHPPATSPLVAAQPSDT

Row | Structure (SMILES) | inhibition [%]
9 | OC[C@@]12C[C@@H]1[C@@H](n1cnc3c(N[C@H](C4CCC4)C4CC4)nc(Cl)nc31)[C@H](O)[C@@H]2O | < 50
10 | CCC(CC)Nc1nc(Cl)nc2c1ncn2[C@H]1[C@H](O)[C@H](O)[C@]2(CO)C[C@H]12 | < 50

These compounds were tested against 5-hydroxytryptamine receptor 6 (Homo sapiens) (UniProt P50406) (assay: Displacement of [3H]LSD from human 5-HT6 receptor expressed in HEK cell membranes at 10 uM incubated for 90 mins under dark condition by microbeta scintillation counting method relative to control). Details: HEK293.
Sequence of 5-hydroxytryptamine receptor 6 (Homo sapiens) (P50406 whole entry): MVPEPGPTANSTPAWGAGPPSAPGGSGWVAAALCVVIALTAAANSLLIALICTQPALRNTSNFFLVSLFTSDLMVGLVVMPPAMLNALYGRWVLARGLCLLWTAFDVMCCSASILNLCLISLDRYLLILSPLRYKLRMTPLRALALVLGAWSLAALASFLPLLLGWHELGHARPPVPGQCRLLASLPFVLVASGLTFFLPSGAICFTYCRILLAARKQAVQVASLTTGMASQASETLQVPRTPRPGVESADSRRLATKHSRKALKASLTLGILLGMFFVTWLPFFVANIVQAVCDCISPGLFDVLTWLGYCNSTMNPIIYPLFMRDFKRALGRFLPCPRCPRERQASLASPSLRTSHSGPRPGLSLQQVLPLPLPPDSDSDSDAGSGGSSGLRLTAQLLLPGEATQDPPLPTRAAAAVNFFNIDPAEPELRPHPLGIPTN

Row | Structure (SMILES) | inhibition [%]
11 | OC[C@@]12C[C@@H]1[C@@H](n1cnc3c(N[C@H](C4CCC4)C4CC4)nc(Cl)nc31)[C@H](O)[C@@H]2O | < 50
12 | CCC(CC)Nc1nc(Cl)nc2c1ncn2[C@H]1[C@H](O)[C@H](O)[C@]2(CO)C[C@H]12 | < 50

The compounds below were run against 5-hydroxytryptamine receptor 7 (Homo sapiens) (UniProt P34969) (assay: Displacement of [3H]LSD from human 5-HT7A receptor expressed in HEK cell membranes at 10 uM incubated for 90 mins under dark condition by microbeta scintillation counting method relative to control). Details: HEK293.
Sequence of 5-hydroxytryptamine receptor 7 (Homo sapiens) (P34969 whole entry): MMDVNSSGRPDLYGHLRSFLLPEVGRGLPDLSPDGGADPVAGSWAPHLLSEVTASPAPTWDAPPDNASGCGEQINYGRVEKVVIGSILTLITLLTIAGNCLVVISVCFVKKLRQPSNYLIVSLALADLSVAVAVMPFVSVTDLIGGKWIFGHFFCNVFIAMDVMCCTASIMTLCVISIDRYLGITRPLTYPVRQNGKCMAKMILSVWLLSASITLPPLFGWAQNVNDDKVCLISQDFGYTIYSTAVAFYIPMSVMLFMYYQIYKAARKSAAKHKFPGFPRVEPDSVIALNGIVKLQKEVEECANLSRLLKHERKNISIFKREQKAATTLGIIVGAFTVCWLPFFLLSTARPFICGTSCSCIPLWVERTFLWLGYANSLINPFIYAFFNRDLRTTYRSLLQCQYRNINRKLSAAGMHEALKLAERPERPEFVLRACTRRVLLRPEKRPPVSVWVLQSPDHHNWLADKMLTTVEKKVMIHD

Row | Structure (SMILES) | inhibition [%]
13 | OC[C@@]12C[C@@H]1[C@@H](n1cnc3c(N[C@H](C4CCC4)C4CC4)nc(Cl)nc31)[C@H](O)[C@@H]2O | < 50
14 | CCC(CC)Nc1nc(Cl)nc2c1ncn2[C@H]1[C@H](O)[C@H](O)[C@]2(CO)C[C@H]12 | < 50

These compounds were tested against T2, 5-hydroxytryptamine receptor 3A (Homo sapiens) (UniProt P46098) (assay: Displacement of [3H]GR65630 from human 5-HT3 receptor expressed in HEK-T cell membranes at 10 uM incubated for 90 mins under dark condition by microbeta scintillation counting method relative to control). Details: not given.
T2 sequence (whole entry): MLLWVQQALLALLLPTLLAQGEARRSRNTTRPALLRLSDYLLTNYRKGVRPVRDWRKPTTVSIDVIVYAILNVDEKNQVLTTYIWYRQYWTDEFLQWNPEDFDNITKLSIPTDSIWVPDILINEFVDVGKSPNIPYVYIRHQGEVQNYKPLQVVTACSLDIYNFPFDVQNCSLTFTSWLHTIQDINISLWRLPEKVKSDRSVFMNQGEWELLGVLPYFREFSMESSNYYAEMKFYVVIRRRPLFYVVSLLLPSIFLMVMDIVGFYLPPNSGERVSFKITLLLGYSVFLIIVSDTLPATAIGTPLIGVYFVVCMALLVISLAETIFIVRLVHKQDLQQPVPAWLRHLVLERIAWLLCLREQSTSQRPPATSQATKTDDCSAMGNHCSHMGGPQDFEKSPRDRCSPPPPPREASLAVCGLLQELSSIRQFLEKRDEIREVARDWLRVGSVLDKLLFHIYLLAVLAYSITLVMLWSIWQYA

Row | Structure (SMILES) | inhibition [%]
15 | OC[C@@]12C[C@@H]1[C@@H](n1cnc3c(N[C@H](C4CCC4)C4CC4)nc(Cl)nc31)[C@H](O)[C@@H]2O | < 50
16 | CCC(CC)Nc1nc(Cl)nc2c1ncn2[C@H]1[C@H](O)[C@H](O)[C@]2(CO)C[C@H]12 | < 50

The compounds below were run against 5-hydroxytryptamine receptor 5A (Homo sapiens) (UniProt P47898) (assay: Displacement of [3H]LSD from human 5-HT5A receptor expressed in Flp-In-CHO cell membranes incubated for 90 mins under dark condition by microbeta scintillation counting method relative to control). Details: not given.
Parameters: concentration or dose not given beside the values

Sequence of 5-hydroxytryptamine receptor 5A (Homo sapiens) (P47898 whole entry): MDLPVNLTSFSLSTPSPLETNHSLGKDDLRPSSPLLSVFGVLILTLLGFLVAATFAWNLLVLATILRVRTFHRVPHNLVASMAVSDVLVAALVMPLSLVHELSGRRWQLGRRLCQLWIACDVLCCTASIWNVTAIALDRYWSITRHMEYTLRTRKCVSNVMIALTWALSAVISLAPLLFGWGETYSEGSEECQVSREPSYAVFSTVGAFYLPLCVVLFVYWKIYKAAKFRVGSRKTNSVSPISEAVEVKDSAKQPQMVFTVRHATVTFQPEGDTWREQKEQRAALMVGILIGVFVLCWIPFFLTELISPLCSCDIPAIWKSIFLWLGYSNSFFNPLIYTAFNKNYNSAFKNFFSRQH

Row | Structure (SMILES) | inhibition [%]
17 | OC[C@@]12C[C@@H]1[C@@H](n1cnc3c(N[C@H](C4CCC4)C4CC4)nc(Cl)nc31)[C@H](O)[C@@H]2O | < 50
18 | CCC(CC)Nc1nc(Cl)nc2c1ncn2[C@H]1[C@H](O)[C@H](O)[C@]2(CO)C[C@H]12 | < 50

What follows are compounds tested against T3, 5-hydroxytryptamine receptor 2A (Homo sapiens, UniProt P28223) (assay: Displacement of [3H]ketanserin from human 5-HT2A receptor expressed in HEK-T cell membranes at 10 uM incubated for 90 mins under dark condition by microbeta scintillation counting method relative to control). Details: not given.
T3 sequence (P28223 whole entry): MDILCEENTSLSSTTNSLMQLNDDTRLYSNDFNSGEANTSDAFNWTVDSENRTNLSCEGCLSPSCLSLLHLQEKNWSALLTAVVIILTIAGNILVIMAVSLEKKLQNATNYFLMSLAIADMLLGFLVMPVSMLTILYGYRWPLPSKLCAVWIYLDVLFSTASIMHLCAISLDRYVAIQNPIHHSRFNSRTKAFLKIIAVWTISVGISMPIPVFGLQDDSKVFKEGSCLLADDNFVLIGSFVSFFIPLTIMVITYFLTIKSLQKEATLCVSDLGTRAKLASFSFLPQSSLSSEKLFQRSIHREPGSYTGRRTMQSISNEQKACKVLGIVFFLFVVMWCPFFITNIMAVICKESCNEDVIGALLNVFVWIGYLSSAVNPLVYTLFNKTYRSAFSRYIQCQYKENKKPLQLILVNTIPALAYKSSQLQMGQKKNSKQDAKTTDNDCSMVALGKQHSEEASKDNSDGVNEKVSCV

Row | Structure (SMILES) | inhibition [%]
19 | OC[C@@]12C[C@@H]1[C@@H](n1cnc3c(N[C@H](C4CCC4)C4CC4)nc(Cl)nc31)[C@H](O)[C@@H]2O | < 10
20 | CCC(CC)Nc1nc(Cl)nc2c1ncn2[C@H]1[C@H](O)[C@H](O)[C@]2(CO)C[C@H]12 | 12

What follows are compounds tested against T4, 5-hydroxytryptamine receptor 2C (Homo sapiens, UniProt P28335) (assay: Displacement of [3H]mesulergine from human 5-HT2CR expressed in Flp-In HEK cell membranes incubated for 90 mins under dark condition by microbeta scintillation counting method). Details: not given.
T4 sequence (P28335 whole entry): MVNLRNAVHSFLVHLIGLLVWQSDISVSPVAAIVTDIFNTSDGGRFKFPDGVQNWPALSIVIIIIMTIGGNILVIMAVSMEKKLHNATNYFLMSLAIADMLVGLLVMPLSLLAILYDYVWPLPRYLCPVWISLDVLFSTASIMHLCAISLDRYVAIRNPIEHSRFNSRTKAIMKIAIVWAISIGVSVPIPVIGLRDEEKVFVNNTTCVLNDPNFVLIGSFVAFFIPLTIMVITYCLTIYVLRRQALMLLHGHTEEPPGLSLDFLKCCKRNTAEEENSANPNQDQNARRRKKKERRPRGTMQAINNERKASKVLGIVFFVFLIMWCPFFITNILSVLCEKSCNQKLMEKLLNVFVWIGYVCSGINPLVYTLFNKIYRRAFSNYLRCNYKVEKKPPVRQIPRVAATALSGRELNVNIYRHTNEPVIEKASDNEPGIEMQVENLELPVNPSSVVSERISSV
Parameters: species or system HEK293

Row | Structure (SMILES) | Ki [nM]
21 | OC[C@@]12C[C@@H]1[C@@H](n1cnc3c(N[C@H](C4CCC4)C4CC4)nc(Cl)nc31)[C@H](O)[C@@H]2O | 298
22 | CCC(CC)Nc1nc(Cl)nc2c1ncn2[C@H]1[C@H](O)[C@H](O)[C@]2(CO)C[C@H]12 | 703

The compounds below were run against T5, 5-hydroxytryptamine receptor 2C (Homo sapiens) (UniProt P28335) (assay: Displacement of [3H]mesulergine from human 5-HT2CR expressed in Flp-In HEK cell membranes at 10 uM incubated for 90 mins under dark condition by microbeta scintillation counting method relative to control). Details: HEK293.
T5 sequence (whole entry): T4 sequence (P28335 whole entry)

Row | Structure (SMILES) | inhibition [%]
23 | OC[C@@]12C[C@@H]1[C@@H](n1cnc3c(N[C@H](C4CCC4)C4CC4)nc(Cl)nc31)[C@H](O)[C@@H]2O | > 50
24 | CCC(CC)Nc1nc(Cl)nc2c1ncn2[C@H]1[C@H](O)[C@H](O)[C@]2(CO)C[C@H]12 | > 50

The compounds below were run against T6, Adenosine receptor A1 (Homo sapiens, UniProt P30542) (assay: Displacement of [3H]N6-phenylisopropyladenosine from recombinant human A1AR expressed in CHO cell membranes after 60 mins by liquid scintillation counting method). Details: not given.
T6 sequence (P30542 whole entry): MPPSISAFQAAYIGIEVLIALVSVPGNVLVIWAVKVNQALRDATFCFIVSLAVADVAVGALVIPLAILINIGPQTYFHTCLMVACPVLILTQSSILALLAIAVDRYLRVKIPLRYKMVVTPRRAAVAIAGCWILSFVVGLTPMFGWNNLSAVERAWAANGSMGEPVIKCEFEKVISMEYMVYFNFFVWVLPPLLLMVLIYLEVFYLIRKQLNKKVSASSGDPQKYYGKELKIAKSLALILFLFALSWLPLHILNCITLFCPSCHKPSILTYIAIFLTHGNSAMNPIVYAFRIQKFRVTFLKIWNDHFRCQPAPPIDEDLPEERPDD

Row | Structure (SMILES) | Ki [nM]
25 | OC[C@@]12C[C@@H]1[C@@H](n1cnc3c(N[C@H](C4CCC4)C4CC4)nc(Cl)nc31)[C@H](O)[C@@H]2O | 298
26 | CCC(CC)Nc1nc(Cl)nc2c1ncn2[C@H]1[C@H](O)[C@H](O)[C@]2(CO)C[C@H]12 | 112

The compounds below were run against Adenosine receptor A2a (Homo sapiens, UniProt P29274) (assay: Displacement of [3 H]2-[p-(2-carboxyethyl)phenyl-ethylamino]-5'-N-ethylcarboxamidoadenosine from recombinant human adenosine receptor A2A expressed in HEK293 cell membranes after 60 mins by liquid scintillation counting method). Details: not given.
Sequence of Adenosine receptor A2a (P29274 whole entry): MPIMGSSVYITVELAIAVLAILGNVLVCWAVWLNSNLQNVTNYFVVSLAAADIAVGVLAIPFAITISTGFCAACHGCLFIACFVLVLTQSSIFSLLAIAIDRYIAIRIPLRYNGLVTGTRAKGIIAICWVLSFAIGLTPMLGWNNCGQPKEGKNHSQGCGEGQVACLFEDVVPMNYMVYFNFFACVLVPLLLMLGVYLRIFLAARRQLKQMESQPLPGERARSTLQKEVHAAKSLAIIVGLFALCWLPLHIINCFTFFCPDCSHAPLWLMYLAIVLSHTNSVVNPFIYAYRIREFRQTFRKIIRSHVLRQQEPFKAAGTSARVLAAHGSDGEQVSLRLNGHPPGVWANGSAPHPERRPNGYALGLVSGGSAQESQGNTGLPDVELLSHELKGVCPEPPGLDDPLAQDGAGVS

Row | Structure (SMILES) | Ki [nM]
27 | OC[C@@]12C[C@@H]1[C@@H](n1cnc3c(N[C@H](C4CCC4)C4CC4)nc(Cl)nc31)[C@H](O)[C@@H]2O | 2690
28 | CCC(CC)Nc1nc(Cl)nc2c1ncn2[C@H]1[C@H](O)[C@H](O)[C@]2(CO)C[C@H]12 | 1750

The compounds below were run against T7, Adenosine receptor A3 (Homo sapiens, UniProt P0DMS8) (assay: Displacement of [125l]N 6-(4-amino-3-iodobenzyl)adenosine-5'-N-methyluronamide from recombinant human A3AR expressed in CHO cell membranes after 60 mins by gamma counting method). Details: not given.
T7 sequence (P0DMS8 whole entry): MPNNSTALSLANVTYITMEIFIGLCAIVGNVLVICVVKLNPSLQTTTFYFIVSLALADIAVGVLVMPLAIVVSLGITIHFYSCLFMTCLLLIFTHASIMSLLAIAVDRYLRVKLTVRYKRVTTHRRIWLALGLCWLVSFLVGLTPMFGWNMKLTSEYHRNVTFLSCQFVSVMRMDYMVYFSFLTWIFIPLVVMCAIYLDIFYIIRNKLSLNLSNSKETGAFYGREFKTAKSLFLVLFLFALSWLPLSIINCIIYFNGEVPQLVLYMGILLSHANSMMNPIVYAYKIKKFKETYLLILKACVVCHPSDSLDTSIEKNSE

Row | Structure (SMILES) | Ki [nM]
29 | CCC(CC)Nc1nc(Cl)nc2c1ncn2[C@H]1[C@H](O)[C@H](O)[C@]2(CO)C[C@H]12 | 1200

These compounds were tested against T3, 5-hydroxytryptamine receptor 2A (assay: Displacement of [3H]ketanserin from human 5-HT2A receptor expressed in HEK-T cell membranes incubated for 90 mins under dark condition by microbeta scintillation counting method). Details: not given.

Row | Structure (SMILES) | Ki [nM]
30 | OC[C@@]12C[C@@H]1[C@@H](n1cnc3c(N[C@H](C4CCC4)C4CC4)nc(Cl)nc31)[C@H](O)[C@@H]2O | > 10000
31 | CCC(CC)Nc1nc(Cl)nc2c1ncn2[C@H]1[C@H](O)[C@H](O)[C@]2(CO)C[C@H]12 | > 10000
